Reference: PMC4432651, “Dynamic interplay between catalytic and lectin domains of GalNAc-transferases modulates protein O-glycosylation” (Nature Communications, 2015)
Where a SMILES comes first, the peptide text is derived from it. The star is where a group is joined. αGalNAc = CC(=O)N[C@@H]1[C@@H](O)[C@@H](O)[C@@H](CO)O[C@@H]1*

Molecular target: T1, GalNAc-T2 (Homo sapiens, UniProt Q10471)
T1 construct: made in house
Assay: Time-lapse AFM of single GalNAc-T2 molecules with ligands
Settings: GalNAc-T2 2.0 nM on mica, PBS pH 7.4, 20 °C
Description: AFM measurements were performed using a MultiMode 8 AFM system (Bruker). […] Additional details are in Supplementary Methods. […]
simulations were performed with the acceptor amino acid – UDPGalNAc distance and the RMSD of the Cα peptide carbon atoms as collective variables.
The values of the height and width of the Gaussian-like biasing potential were selected as 1.0 kcal·mol -1 and 0.25 Å, respectively. A temperature window of ΔT = 25000 K for the well-tempered algorithm was used together with a deposition time of 1 ps. The simulation was continued until the system completely explored the free energy landscape several times which, in terms of the simulation time, corresponds to approximately 100 ns for each metadynamics run.
Atomic Force Microscopy Imaging
In Tapping Mode image operation the cantilever driven by a piezoelectric actuator vibrates near its resonance frequency. Upon approaching the sample, the tip briefly touches the surface at the bottom of each swing, resulting in a decrease in oscillation amplitude. […]
AFM scanning requires the sample be immobilized on a nanoflat surface not to be swept away. […] The concentration of the protein incubated on the mica sheets was suitable to get isolated features that could be analyzed individually. […]
GalNAc-T2 presents a net positive charge at the working pH conditions due to its theoretical isoelectric point of 8.3. The immobilization of enzymes on mica was previously evaluated observing clearly they preserve the enzymatic activity5.
To determine how the ligands affect the conformational dynamics of GalNAc-T2, the enzyme was also incubated with ligands for 10 min under mild stirring at room temperature. […] AFM images were further analyzed by using the WSxM software6. […] At least 10 images of 10 different areas of 500 nm2 were analyzed for every sample and environment. Furthermore, each feature or associate was analyzed in detail with the zoom function of the WSxM program, performed without losing image information and or the discarding of artifacts. […]

T1 sequence (Q10471 75-571 limits assumed): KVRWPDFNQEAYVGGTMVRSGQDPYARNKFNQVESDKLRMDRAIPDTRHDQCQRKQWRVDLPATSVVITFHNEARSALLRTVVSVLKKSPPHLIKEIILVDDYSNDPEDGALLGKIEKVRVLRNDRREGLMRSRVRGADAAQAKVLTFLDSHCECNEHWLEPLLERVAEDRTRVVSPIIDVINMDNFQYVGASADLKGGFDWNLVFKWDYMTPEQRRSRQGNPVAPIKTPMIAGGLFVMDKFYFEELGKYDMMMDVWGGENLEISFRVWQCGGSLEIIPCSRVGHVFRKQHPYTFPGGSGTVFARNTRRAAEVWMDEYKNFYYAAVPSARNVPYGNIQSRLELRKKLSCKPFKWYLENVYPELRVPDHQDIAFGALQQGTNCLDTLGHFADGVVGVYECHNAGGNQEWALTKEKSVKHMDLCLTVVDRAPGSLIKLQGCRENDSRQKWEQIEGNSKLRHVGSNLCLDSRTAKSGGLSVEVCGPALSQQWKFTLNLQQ

Row | Compound | conformational states of GalNAc-T2 observed (peptide alone or in combination with UDP/Mn+2, peptides 10.0 nM) | conformational states of GalNAc-T2 observed (in the presence of Mn+2, UDP, UDP-GalNAc and MnCl2 20.0 nM)
1 | CC(=O)NCC(=O)N[C@H](C(=O)N[C@H](C(=O)N1CCC[C@H]1C(=O)N[C@@H](CO)C(=O)N1CCC[C@H]1C(=O)N[C@H](C(=O)N1CCC[C@H]1C(=O)N[C@H](C(=O)N[C@H](C(=O)N[C@@H](CO)C(=O)N[C@H](C(=O)N[C@H](C(=O)N[C@@H](CO)C(=O)N[C@@H](C)C(N)=O)[C@@H](C)O[C@H]1O[C@H](CO)[C@H](O)[C@H](O)[C@H]1NC(C)=O)[C@@H](C)O)[C@@H](C)O)[C@@H](C)O)C(C)C)[C@@H](C)O)[C@@H](C)O [MUC5AC-13] (Ac-GTTPSPVPTTSTT(αGalNAc)SA-NH2; N-terminus assumed) | three different conformational states are present | 
2 | O=c1ccn([C@@H]2O[C@H](COP(=O)(O)OP(=O)(O)O)[C@@H](O)[C@H]2O)c(=O)[nH]1 [UDP, uridine diphosphate, reference compound] |  | either the very compact or the compact structure
